Assay results taken from PubChem BioAssay (NCI).
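Five compound concentrations were applied to cells in 96-well plates for 48 hours; endpoints were derived by simple linear interpolation of the resulting dose-response curve. GI50: concentration for 50% inhibition of growth. TGI: concentration producing complete growth inhibition.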

Legend:
Experiment in all cases: NCI-60 cell line screen, 48 h
SW-620 colon = tested on: SW-620 colon
PC-3 prostate = tested on: PC-3 prostate
IGROV1 ovarian = tested on: IGROV1 ovarian
SK-OV-3 ovarian = tested on: SK-OV-3 ovarian
SNB-19 CNS = tested on: SNB-19 CNS
NCI-H226 lung = tested on: NCI-H226 lung
HCC-2998 colon = tested on: HCC-2998 colon
OVCAR-3 ovarian = tested on: OVCAR-3 ovarian
ACHN renal = tested on: ACHN renal
HL-60(TB) leukemia = tested on: HL-60(TB) leukemia

`Cc1ccc2[nH]c(C(=O)NN3C(=O)C(C)SC34CCC(C)CC4)c(-c3ccccc3)c2c1` (centres undefined) was tested, and the GI50 (SW-620 colon) was 31.4 µM, the TGI (SW-620 colon) was 82.6 µM and the GI50 (PC-3 prostate) was 13.8 µM. It also gave a TGI (PC-3 prostate) of 46 µM, a GI50 (IGROV1 ovarian) of 13.6 µM and a TGI (IGROV1 ovarian) of 36.4 µM. It also gave a GI50 (SK-OV-3 ovarian) of 33.4 µM, a TGI (SK-OV-3 ovarian) of over 100 µM and a GI50 (SNB-19 CNS) of 22.7 µM. It also gave a TGI (SNB-19 CNS) of 62.4 µM, a GI50 (NCI-H226 lung) of 17.3 µM and a TGI (NCI-H226 lung) of 35.5 µM. It also gave a GI50 (HCC-2998 colon) of 16.6 µM, a TGI (HCC-2998 colon) of 31.7 µM and a GI50 (OVCAR-3 ovarian) of 11.8 µM. The TGI (OVCAR-3 ovarian) was 27.3 µM, the GI50 (ACHN renal) was 19.9 µM and the TGI (ACHN renal) was 44.2 µM.
`CC[C@H]1CCC/C=C/[C@@H]2C[C@H](O)C[C@H]2[C@H](O)/C=C/C(=O)O1` was tested, and the GI50 (SW-620 colon) was 0.0313 µM, the TGI (SW-620 colon) was 0.517 µM and the GI50 (PC-3 prostate) was 0.0517 µM. The TGI (PC-3 prostate) was over 100 µM, the GI50 (IGROV1 ovarian) was 0.152 µM and the TGI (IGROV1 ovarian) was over 100 µM. For the same compound, the GI50 (SK-OV-3 ovarian) was 0.0476 µM, the GI50 (SNB-19 CNS) was 0.0607 µM and the TGI (SNB-19 CNS) was over 100 µM. It also gave a GI50 (NCI-H226 lung) of 0.0197 µM, a TGI (NCI-H226 lung) of 0.0424 µM and a GI50 (HL-60(TB) leukemia) of 0.0669 µM. The TGI (HL-60(TB) leukemia) was 0.473 µM, the GI50 (OVCAR-3 ovarian) was 0.0281 µM and the TGI (OVCAR-3 ovarian) was 0.104 µM. It also gave a GI50 (ACHN renal) of 0.0443 µM and a TGI (ACHN renal) of over 100 µM.
`COc1cc2c(/C=C3/C(=O)Nc4ccc(O)cc43)c(Cl)n(Cc3cc(OC)c(OC)c(OC)c3)c2cc1C` gave a GI50 (SW-620 colon) of 3.28 µM, a TGI (SW-620 colon) of over 100 µM and a GI50 (PC-3 prostate) of 1.56 µM. The TGI (PC-3 prostate) was over 83.6 µM, the TGI (IGROV1 ovarian) was 5.75 µM and the GI50 (SK-OV-3 ovarian) was 4.06 µM. It also gave a TGI (SK-OV-3 ovarian) of over 75 µM, a GI50 (SNB-19 CNS) of 3.32 µM and a TGI (SNB-19 CNS) of over 100 µM. For the same compound, the GI50 (NCI-H226 lung) was 2.88 µM, the TGI (NCI-H226 lung) was over 27 µM and the GI50 (HL-60(TB) leukemia) was 1.97 µM. The TGI (HL-60(TB) leukemia) was 10.3 µM, the GI50 (HCC-2998 colon) was 3.3 µM and the TGI (HCC-2998 colon) was over 36.1 µM. It also gave a GI50 (OVCAR-3 ovarian) of 1.32 µM, a TGI (OVCAR-3 ovarian) of over 20.8 µM and a GI50 (ACHN renal) of 3.43 µM. For the same compound, the TGI (ACHN renal) was over 100 µM.
In the case of `CCc1cccc(NC(=O)Nc2ccc(Oc3ccc4nc(NC(=O)OC)[nH]c4c3)cc2)c1`, the GI50 (SW-620 colon) is reported as 3.05 µM, the TGI (SW-620 colon) is reported as 12.1 µM and the GI50 (PC-3 prostate) is reported as 4.9 µM. It also gave a TGI (PC-3 prostate) of 19.6 µM, a GI50 (IGROV1 ovarian) of 5.37 µM and a TGI (IGROV1 ovarian) of over 25 µM. It also gave a GI50 (SK-OV-3 ovarian) of 4.99 µM, a TGI (SK-OV-3 ovarian) of 11.5 µM and a GI50 (SNB-19 CNS) of 10.1 µM. For the same compound, the TGI (SNB-19 CNS) was over 25 µM, the GI50 (NCI-H226 lung) was 5.03 µM and the TGI (NCI-H226 lung) was over 20.7 µM. For the same compound, the GI50 (HL-60(TB) leukemia) was 2.79 µM, the TGI (HL-60(TB) leukemia) was over 16.4 µM and the GI50 (HCC-2998 colon) was 11.7 µM. It also gave a TGI (HCC-2998 colon) of over 25 µM, a GI50 (OVCAR-3 ovarian) of 3.65 µM and a TGI (OVCAR-3 ovarian) of 10 µM. The GI50 (ACHN renal) was 10.8 µM and the TGI (ACHN renal) was over 25 µM.
With `Fc1ccc(-c2ncn(CCCN3CCOCC3)c2-c2ccncc2)cc1` the GI50 (SW-620 colon) was over 25 µM, the TGI (SW-620 colon) was over 25 µM and the GI50 (PC-3 prostate) was over 25 µM. It also gave a TGI (PC-3 prostate) of over 25 µM, a GI50 (IGROV1 ovarian) of over 25 µM and a TGI (IGROV1 ovarian) of over 25 µM. It also gave a GI50 (SK-OV-3 ovarian) of over 25 µM, a TGI (SK-OV-3 ovarian) of over 25 µM and a GI50 (SNB-19 CNS) of over 25 µM. For the same compound, the TGI (SNB-19 CNS) was over 25 µM, the GI50 (NCI-H226 lung) was over 25 µM and the TGI (NCI-H226 lung) was over 25 µM. It also gave a GI50 (HL-60(TB) leukemia) of over 25 µM, a TGI (HL-60(TB) leukemia) of over 25 µM and a GI50 (HCC-2998 colon) of over 25 µM. The TGI (HCC-2998 colon) was over 25 µM, the GI50 (OVCAR-3 ovarian) was over 25 µM and the TGI (OVCAR-3 ovarian) was over 25 µM. It also gave a GI50 (ACHN renal) of over 25 µM and a TGI (ACHN renal) of over 25 µM.
With `Cc1ccc(-c2nc(/C=N/Nc3cc(C)nc4ccc(Br)cc34)c(C)o2)cc1` the GI50 (SW-620 colon) was 1.92 µM, the TGI (SW-620 colon) was 3.68 µM and the GI50 (PC-3 prostate) was 1.71 µM. The TGI (PC-3 prostate) was 3.3 µM, the GI50 (IGROV1 ovarian) was 1.84 µM and the TGI (IGROV1 ovarian) was 3.52 µM. The GI50 (SK-OV-3 ovarian) was 1.8 µM, the TGI (SK-OV-3 ovarian) was 3.29 µM and the GI50 (SNB-19 CNS) was 1.86 µM. For the same compound, the TGI (SNB-19 CNS) was 3.48 µM, the GI50 (NCI-H226 lung) was 15 µM and the TGI (NCI-H226 lung) was 42.1 µM. The GI50 (HL-60(TB) leukemia) was 1.9 µM, the TGI (HL-60(TB) leukemia) was 4.05 µM and the GI50 (HCC-2998 colon) was 1.74 µM. The TGI (HCC-2998 colon) was 3.28 µM, the GI50 (OVCAR-3 ovarian) was 1.88 µM and the TGI (OVCAR-3 ovarian) was 3.36 µM. For the same compound, the GI50 (ACHN renal) was 1.8 µM and the TGI (ACHN renal) was 3.21 µM.
